Results as given in patent publication US20250313533A1, “QUINOLINE CARBOXYLIC ACID ESTER COMPOUND AND PREPARATION METHOD AND USE THEREOF” (priority 2019, published 2025).

Columns and labels:
[1] = tested on: bacterial wilt in tobacco; test: whole plant or invertebrate; details: Nicotiana tabacum, read-out: efficacy against bacterial wilt in tobacco
[2] = tested on: pathogenic bacteria causing fruit blotch in watermelons; test: In vitro bactericidal activity, fruit blotch in watermelons; assay type: cell-based, acidovorax; details: read-out: inhibitory rate; for inhibition at 1 ppm: dosage 1 ppm; for inhibition at 5 ppm: dosage 5 ppm
Description: (§1) Under aseptic conditions, equal amounts of NB culture medium were added to test tubes, and fixed amounts of the sample solutions were pipetted into the above test tubes in an ascending order of concentrations, respectively. The mixtures were well mixed and added with equal amounts of a bacterial suspension in log phase.
(§2) Each step of the procedure was repeated 4 times. After mixing, the mixture samples were incubated in the dark in a shaking incubator at 25° C. The OD values were measured when the bacteria were in log phase.

[3] = tested on: fruit blotch in watermelons; test: whole plant or invertebrate; details: read-out: efficacy against fruit blotch in watermelons
[4] = tested on: stem rot in sweet potatoes; test: whole plant or invertebrate; details: read-out: efficacy against stem rot in sweet potatoes
[5] = tested on: pathogenic bacteria causing bacterial wilt in cassava; test: organism not typed; assay type: cell-based; details: read-out: inhibitory rate
[6] = tested on: pathogenic bacteria causing black rot in Chinese cabbages; test: In vitro bactericidal activity, black rot in Chinese cabbages; assay type: cell-based, xanthomonas; details: Xanthomonas, read-out: inhibitory rate; for inhibition at 1 ppm: dosage 1 ppm; for inhibition at 5 ppm: dosage 5 ppm
Description: as §1, §2

black shank in potatoes = test: Living crops in vivo protective activity, potatoes (root irrigation); details: Solanum tuberosum, read-out: efficacy against black shank in potatoes; for pest or weed control at 5 ppm: dosage 5 ppm; for pest or weed control at 10 ppm: dosage 10 ppm
Description: Root irrigation was carried out on the potatoes for tests according to the designed concentration of the agents. The dosage for each plant was 200 mL and was kept consistent (also for the control). The black shank bacteria were inoculated on the second day after the application. The results were investigated according to the disease condition.

[7] = tested on: pathogenic bacteria causing bacterial wilt in tobacco; test: whole plant or invertebrate; assay type: cell-based, ralstonia; details: read-out: inhibitory rate
bacterial blight in rice = test: whole plant or invertebrate; details: Oryza sativa, read-out: efficacy against bacterial blight in rice
[8] = tested on: pathogenic bacteria causing bacterial angular leaf spot in cucumbers; test: In vitro bactericidal activity, bacterial angular leaf spot in cucumbers; assay type: cell-based, pseudomonas; details: read-out: inhibitory rate; for inhibition at 1 ppm: dosage 1 ppm; for inhibition at 5 ppm: dosage 5 ppm
Description: as §1, §2

cucumber seedlings = test: Safety for plant growth after application; assay type: in vivo; details: dosage 200 ppm
From the text: Taking indoor potted cucumber seedlings as an example, the influence of the compound disclosed herein on growth rate of plant height, chlorophyll content, leaf area, etc. of crops was mainly evaluated.
The results of safety and health-care effect of the compounds of the present disclosure on cucumber seedlings are shown in the following table 1: […]

[9] = tested on: pathogenic bacteria causing black shank in potatoes; test: In vitro bactericidal activity, black shank in potatoes; assay type: cell-based; details: read-out: inhibitory rate; for inhibition at 1 ppm: dosage 1 ppm; for inhibition at 5 ppm: dosage 5 ppm
Description: as §1, §2

[10] = tested on: pathogenic bacteria causing stem rot in sweet potatoes; test: In vitro bactericidal activity, stem rot in sweet potatoes; assay type: cell-based, dikia; details: read-out: inhibitory rate; for inhibition at 1 ppm: dosage 1 ppm; for inhibition at 5 ppm: dosage 5 ppm
Description: as §1, §2

[11] = tested on: soft rot in Chinese cabbages; test: whole plant or invertebrate; details: 48 h, read-out: efficacy against soft rot in Chinese cabbages
[12] = tested on: pathogenic bacteria causing fire blight in pears; test: In vitro bactericidal activity, fire blight in pears; assay type: cell-based, erwinia; details: Erwinia, read-out: inhibitory rate; for inhibition at 1 ppm: dosage 1 ppm; for inhibition at 5 ppm: dosage 5 ppm
Description: as §1, §2

[13] = tested on: pathogenic bacteria causing bacterial blight in rice; test: whole plant or invertebrate; assay type: cell-based, xanthomonas; details: read-out: inhibitory rate

Row | SMILES | pest or weed control at 5 ppm [1] [%] | pest or weed control at 10 ppm [1] [%] | inhibition at 1 ppm [2] [%] | inhibition at 5 ppm [2] [%] | pest or weed control at 5 ppm [3] [%] | pest or weed control at 10 ppm [3] [%] | pest or weed control at 5 ppm [4] [%] | pest or weed control at 10 ppm [4] [%] | inhibition at 1 ppm [5] [%] | inhibition at 5 ppm [5] [%] | inhibition at 1 ppm [6] [%] | inhibition at 5 ppm [6] [%] | pest or weed control at 5 ppm (black shank in potatoes) [%] | pest or weed control at 10 ppm (black shank in potatoes) [%] | inhibition at 1 ppm [7] [%] | inhibition at 5 ppm [7] [%] | pest or weed control at 5 ppm (bacterial blight in rice) [%] | pest or weed control at 10 ppm (bacterial blight in rice) [%] | inhibition at 1 ppm [8] [%] | inhibition at 5 ppm [8] [%] | other results
1 | COCCOC(=O)c1cn(C2CC2)c2cc(SC)c(F)cc2c1=O [Compound 381, 2-methoxyethyl 1-cyclopropyl-6-fluoro-7-methylthio-4-oxo-1,4-dihydroquinoline-3-carboxylate] | ≥ 90 | ≥ 90 | ≥ 90 | ≥ 90 | ≥ 90 | ≥ 90 | ≥ 90 | ≥ 90 | ≥ 90 | ≥ 90 | ≥ 90 | ≥ 90 | ≥ 90 | ≥ 90 | ≥ 90 | ≥ 90 | ≥ 90 | ≥ 90 | ≥ 90 | ≥ 90 | safety for plant growth (discoloration, necrosis, wilt, malformation) (cucumber seedlings): safe for plant growth; inhibition at 1 ppm [9]: ≥ 90%; inhibition at 5 ppm [9]: ≥ 90%; inhibition at 1 ppm [10]: ≥ 90%; inhibition at 5 ppm [10]: ≥ 90%; pest or weed control at 5 ppm [11]: ≥ 90%; pest or weed control at 10 ppm [11]: ≥ 90%; inhibition at 1 ppm [12]: ≥ 90%; inhibition at 5 ppm [12]: ≥ 90%; inhibition at 1 ppm [13]: ≥ 90%; inhibition at 5 ppm [13]: ≥ 90%
2 | CCOCCOC(=O)c1cn(C2CC2)c2cc(SCC)c(F)cc2c1=O [Compound 397] | ≥ 90 | ≥ 90 | ≥ 90 | ≥ 90 | ≥ 90 | ≥ 90 | ≥ 90 | ≥ 90 | ≥ 90 | ≥ 90 | ≥ 80 | ≥ 90 | ≥ 90 | ≥ 90 | ≥ 90 | ≥ 90 | ≥ 90 | ≥ 90 | ≥ 90 | ≥ 90 | safety for plant growth (discoloration, necrosis, wilt, malformation) (cucumber seedlings): safe for plant growth; inhibition at 1 ppm [9]: ≥ 90%; inhibition at 5 ppm [9]: ≥ 90%; inhibition at 1 ppm [10]: ≥ 90%; inhibition at 5 ppm [10]: ≥ 90%; pest or weed control at 5 ppm [11]: ≥ 80%; pest or weed control at 10 ppm [11]: ≥ 90%; inhibition at 1 ppm [12]: ≥ 80%; inhibition at 5 ppm [12]: ≥ 90%; inhibition at 1 ppm [13]: ≥ 90%; inhibition at 5 ppm [13]: ≥ 90%
